Earlier results in US4610818A, “N-acyl derivatives of dipeptides, their preparation and their use in the therapy of disorders, and agents for this purpose” (BASF Aktiengesellschaft, priority 1982, dated 1986).

Tested on: tremor, rigor and akinesia
Conditions: Parkinson patients, MIF alone or in combination with L-dopa

L-Pro-L-Leu-Gly-NH2 [MIF]
effect on tremor, rigor and akinesia: advantageous effect
